Assay results: the supplement of paper PMC10307832

Key:
Test in all cases: relative viability (nuclei count vs DMSO), 5 days (fraction); higher = more cells survive
[1] = compound: C1=CC2=C(C=C(C(=C2N=C1)O)N=NC3=CC4=C(C=C3)C=C(C=C4)S(=O)(=O)O)S(=O)(=O)O + Cc1nc(NC(=O)N2CCC[C@H]2C(N)=O)sc1-c1ccnc(C(C)(C)C(F)(F)F)c1 [Alpelisib] (partner 2 µM)
Method in brief: (§1)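 After 5 days of treatment, lung cancer cells in 1536-well plates were fixed and stained in a single step (final 0.05% Triton X-100, 1% formaldehyde, 1 ug/ml Hoechst) and their nuclei counted on 4× images. Treatment had been applied by pin tool the day after seeding as one drug alone or as a fixed anchor-drug dose with five library-drug doses (not always all listed) in √10 steps. Relative viability is the nuclei count of treated wells divided by that of vehicle wells, and values are medians of duplicate plates.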

AT-7519 + Phenformin = compound: O=C(NC1CCNCC1)c1n[nH]cc1NC(=O)c1c(Cl)cccc1Cl [AT-7519] + N=C(N)NC(=N)NCCc1ccccc1 [Phenformin] (partner 250 µM)
Method in brief: as §1

AT-7519 + Foretinib = compound: O=C(NC1CCNCC1)c1n[nH]cc1NC(=O)c1c(Cl)cccc1Cl [AT-7519] + COc1cc2c(Oc3ccc(NC(=O)C4(C(=O)Nc5ccc(F)cc5)CC4)cc3F)ccnc2cc1OCCCN1CCOCC1 [Foretinib] (partner 0.25 µM)
Method in brief: as §1

[2] = compound: C1=CC2=C(C=C(C(=C2N=C1)O)N=NC3=CC4=C(C=C3)C=C(C=C4)S(=O)(=O)O)S(=O)(=O)O + Cc1nc(Nc2ncc(C(=O)Nc3c(C)cccc3Cl)s2)cc(N2CCN(CCO)CC2)n1 [Dasatinib] (partner 0.075 µM)
Method in brief: as §1

Cell Line	relative viability ([1]; first compound 0.08 µM)	relative viability ([1]; first compound 0.253 µM)	relative viability ([1]; first compound 0.8 µM)	relative viability ([1]; first compound 2.53 µM)	relative viability ([1]; first compound 8 µM)	relative viability (AT-7519 + Phenformin; first compound 0.01 µM)	relative viability (AT-7519 + Phenformin; first compound 0.03162 µM)	relative viability (AT-7519 + Phenformin; first compound 0.3162 µM)	relative viability (AT-7519 + Phenformin; first compound 1 µM)	relative viability (AT-7519 + Foretinib; first compound 0.01 µM)	relative viability (AT-7519 + Foretinib; first compound 0.03162 µM)	relative viability (AT-7519 + Foretinib; first compound 1 µM)	relative viability ([2]; first compound 0.08 µM)	relative viability ([2]; first compound 0.253 µM)	relative viability ([2]; first compound 0.8 µM)	relative viability ([2]; first compound 2.53 µM)	relative viability ([2]; first compound 8 µM)	relative viability (AT-7519 + Foretinib; first compound 0.3162 µM)
201T	1.02	0.991	0.995	1.06	1.03	0.461	0.441	0.486	0.473	1.2	1.05	0.809	0.627	0.56	0.584	0.619	0.677	
A549	0.733	0.708	0.665	0.728	0.662	0.131	0.153	0.158	0.0741	0.925	0.984	0.845						0.852
A-427	1.19	1.07	1.09	1.08	1.17	0.233	0.315	0.238	0.222	1.16	0.968	0.384	0.68	0.634	0.64	0.775	0.751	1.06
ABC-1	1.14	0.967	1.03	0.869	1.22	0.245	0.242	0.234	0.164	0.937	1.09	0.541	0.568			0.713	0.421	0.962
BEN	1.26	0.962	0.847	1.04	0.932	0.522	0.234	0.269	0.257	0.719	0.636	0.8	0.25	0.31	0.296	0.347	0.322	0.922
CAL-12T	1.85	1.13	1.08	1.29	1.13	0.531	0.579	0.272	0.188	1.17	1.19	0.178	0.325	0.361	0.383	0.518	0.434	0.814
COR-L23	0.818	0.691	0.728	0.704	0.593	0.459	0.412	0.287	0.144	1.19	0.799	0.507	0.523	0.477	0.442	0.582	0.576	0.992
COR-L 105	1.05	1.03	1.26	0.966	1.08	0.451	0.489	0.301	0.286	1.17	1.01	0.525	0.307	0.337	0.445	0.348	0.278	1.2
Calu-6	0.942	0.965	1.1	0.988	1.04					0.903	0.917	0.641						0.865
ChaGo-K-1						0.459	0.392	0.404	0.451	0.931	0.845	0.733	0.648	0.595	0.599	0.481	0.335	0.967
EBC-1	0.822	0.854	0.743	0.813	1.03					0.101	0.106	0.0905						0.0999
EKVX	1.01	0.849	0.793	0.85	0.903	0.246	0.242	0.259	0.23	0.75	0.902	0.773	0.314	0.648	0.556	0.743	0.633	0.996
EMC-BAC-2	0.8	0.75	0.711	0.766	0.696	0.52	0.524	0.495	0.585	0.977	0.998	0.794	0.324	0.401	0.336	0.36	0.367	1.02
EPLC-272H	0.996	0.831	0.876	0.963	0.944	0.272	0.295	0.307	0.198	0.753	0.512	0.28	0.408	0.313	0.333	0.366	0.418	0.622
H3255	0.82	0.698	0.717	0.775	0.712	0.489	0.384	0.313	0.31	0.901	0.876	0.794	0.346	0.375	0.297	0.34	0.477	0.906
HARA	0.907	0.873	0.791	0.894	0.845	0.415	0.52	0.503	0.358	1.07	0.638	0.591	0.284	0.274	0.274	0.296	0.327	0.906
HCC-15	0.97	0.811	0.807	0.895	0.938	0.468	0.422	0.401	0.241	1.11	0.941	0.403	0.684	0.551	0.609	0.584	0.624	0.914
HCC-44	0.867	0.786	0.779	0.893	0.893	0.15	0.199	0.154	0.205									
HCC-78	0.406	0.325	0.319	0.345	0.266	0.712	0.604	0.596	0.662	0.564	0.563	0.575	0.404	0.337	0.426	0.352	0.394	0.597
HCC-366	0.386	0.344	0.389	0.401	0.439	0.624	0.616	0.613	0.509	0.994	0.896	0.717	0.765	0.661	0.654	0.649	0.637	0.941
